Tested on: Phakopsora pachyrhizi (F129L)
Experiment: Protective control of soybean rust on soybeans (PHAKPA P2)
Assay type: in vivo
Details: protective P2, 4 ppm, soybean rust F129L isolate

| Structure (SMILES) | % PHAKPA (F129L) Disease level P2 at 4 ppm [%] |
| --- | --- |
| CO/N=C(/C(=O)OC)c1cccc(C)c1CO/N=C(\C)c1ccc(Cl)cc1C(F)(F)F [compound 304] | 53 |
| CNC(=O)/C(=N/OC)c1cccc(C)c1CO/N=C(\C)c1ccc(OC)cc1C(F)(F)F [compound 324] | 2 |
| CNC(=O)/C(=N/OC)c1cccc(C)c1CO/N=C(\C)c1c(F)cccc1OC(F)(F)F [compound 325] | 24 |
| CNC(=O)/C(=N/OC)c1cccc(C)c1CO/N=C(\C)c1cccc(F)c1C(F)(F)F [compound 326] | 25 |
| CNC(=O)/C(=N/OC)c1cccc(C)c1CO/N=C(\C)c1ccc(C)cc1C(F)(F)F [compound 327] | 23 |
| CO/N=C(/C(=O)OC)c1cccc(C)c1CO/N=C(\C)c1ccc(OC)cc1C(F)(F)F [compound 328] | 33 |
| CNC(=O)/C(=N/OC)c1cccc(C)c1CO/N=C(\C)c1ccccc1OC1CC1 [compound 329] | 100 |
| CO/N=C(/C(=O)OC)c1cccc(C)c1CO/N=C(\C)c1cccc(F)c1C(F)(F)F [compound 330] | 83 |
| CO/N=C(/C(=O)OC)c1cccc(C)c1CO/N=C(\C)c1ccc(Oc2ccc(Cl)cc2)cc1C(F)(F)F [compound 335] | 77 |
| CNC(=O)/C(=N/OC)c1cccc(C)c1CO/N=C(\C)c1ccc(Oc2ccc(Cl)cc2)cc1C(F)(F)F [compound 336] | 63 |
| CNC(=O)/C(=N/OC)c1cccc(C)c1CO/N=C(\C)c1ccc(OC)cc1OC(F)(F)F [compound 337] | 9 |
| CNC(=O)/C(=N/OC)c1cccc(C)c1CO/N=C(\C)c1ccc(C)cc1OC(F)(F)F [compound 340] | 23 |
| CNC(=O)/C(=N/OC)c1cccc(C)c1CO/N=C(\C)c1c(F)cc(F)cc1OC(F)(F)F [compound 344] | 6 |

Same assay, conditions: protective P2, 16 ppm, soybean rust F129L isolate

| Structure (SMILES) | % PHAKPA (F129L) Disease level P2 at 16 ppm [%] |
| --- | --- |
| CO/N=C(/C(=O)OC)c1cccc(C)c1CO/N=C(\C)c1ccc(Cl)cc1C(F)(F)F [compound 304] | 28 |
| CNC(=O)/C(=N/OC)c1cccc(C)c1CO/N=C(\C)c1ccc(OC)cc1C(F)(F)F [compound 324] | 1 |
| CNC(=O)/C(=N/OC)c1cccc(C)c1CO/N=C(\C)c1c(F)cccc1OC(F)(F)F [compound 325] | 4 |
| CNC(=O)/C(=N/OC)c1cccc(C)c1CO/N=C(\C)c1cccc(F)c1C(F)(F)F [compound 326] | 0 |
| CNC(=O)/C(=N/OC)c1cccc(C)c1CO/N=C(\C)c1ccc(C)cc1C(F)(F)F [compound 327] | 3 |
| CO/N=C(/C(=O)OC)c1cccc(C)c1CO/N=C(\C)c1ccc(OC)cc1C(F)(F)F [compound 328] | 8 |
| CNC(=O)/C(=N/OC)c1cccc(C)c1CO/N=C(\C)c1ccccc1OC1CC1 [compound 329] | 53 |
| CO/N=C(/C(=O)OC)c1cccc(C)c1CO/N=C(\C)c1cccc(F)c1C(F)(F)F [compound 330] | 24 |
| CO/N=C(/C(=O)OC)c1cccc(C)c1CO/N=C(\C)c1ccc(Oc2ccc(Cl)cc2)cc1C(F)(F)F [compound 335] | 53 |
| CNC(=O)/C(=N/OC)c1cccc(C)c1CO/N=C(\C)c1ccc(Oc2ccc(Cl)cc2)cc1C(F)(F)F [compound 336] | 20 |
| CNC(=O)/C(=N/OC)c1cccc(C)c1CO/N=C(\C)c1ccc(OC)cc1OC(F)(F)F [compound 337] | 0 |
| CNC(=O)/C(=N/OC)c1cccc(C)c1CO/N=C(\C)c1ccc(C)cc1OC(F)(F)F [compound 340] | 4 |
| CNC(=O)/C(=N/OC)c1cccc(C)c1CO/N=C(\C)c1c(F)cc(F)cc1OC(F)(F)F [compound 344] | 0 |

Tested on: Phakopsora pachyrhizi (F129L)
Experiment: Protective control of soybean rust on soybeans (PHAKPA P6)
Assay type: in vivo
Details: protective P6, 4 ppm, soybean rust F129L isolate

| Structure (SMILES) | % PHAKPA (F129L) Disease level P6 at 4 ppm [%] |
| --- | --- |
| CO/N=C(/C(=O)OC)c1cccc(C)c1CO/N=C(\C)c1ccc(Cl)cc1C(F)(F)F [compound 304] | 100 |
| CNC(=O)/C(=N/OC)c1cccc(C)c1CO/N=C(\C)c1ccc(OC)cc1C(F)(F)F [compound 324] | 12 |
| CNC(=O)/C(=N/OC)c1cccc(C)c1CO/N=C(\C)c1c(F)cccc1OC(F)(F)F [compound 325] | 22 |
| CNC(=O)/C(=N/OC)c1cccc(C)c1CO/N=C(\C)c1cccc(F)c1C(F)(F)F [compound 326] | 30 |
| CNC(=O)/C(=N/OC)c1cccc(C)c1CO/N=C(\C)c1ccc(C)cc1C(F)(F)F [compound 327] | 48 |
| CO/N=C(/C(=O)OC)c1cccc(C)c1CO/N=C(\C)c1ccc(OC)cc1C(F)(F)F [compound 328] | 23 |
| CNC(=O)/C(=N/OC)c1cccc(C)c1CO/N=C(\C)c1ccccc1OC1CC1 [compound 329] | 100 |
| CO/N=C(/C(=O)OC)c1cccc(C)c1CO/N=C(\C)c1cccc(F)c1C(F)(F)F [compound 330] | 93 |
| CO/N=C(/C(=O)OC)c1cccc(C)c1CO/N=C(\C)c1ccc(Oc2ccc(Cl)cc2)cc1C(F)(F)F [compound 335] | 80 |
| CNC(=O)/C(=N/OC)c1cccc(C)c1CO/N=C(\C)c1ccc(Oc2ccc(Cl)cc2)cc1C(F)(F)F [compound 336] | 50 |
| CNC(=O)/C(=N/OC)c1cccc(C)c1CO/N=C(\C)c1ccc(OC)cc1OC(F)(F)F [compound 337] | 13 |
| CNC(=O)/C(=N/OC)c1cccc(C)c1CO/N=C(\C)c1ccc(C)cc1OC(F)(F)F [compound 340] | 42 |
| CNC(=O)/C(=N/OC)c1cccc(C)c1CO/N=C(\C)c1c(F)cc(F)cc1OC(F)(F)F [compound 344] | 16 |

Same assay, conditions: protective P6, 16 ppm, soybean rust F129L isolate

| Structure (SMILES) | % PHAKPA (F129L) Disease level P6 at 16 ppm [%] |
| --- | --- |
| CO/N=C(/C(=O)OC)c1cccc(C)c1CO/N=C(\C)c1ccc(Cl)cc1C(F)(F)F [compound 304] | 37 |
| CNC(=O)/C(=N/OC)c1cccc(C)c1CO/N=C(\C)c1ccc(OC)cc1C(F)(F)F [compound 324] | 0 |
| CNC(=O)/C(=N/OC)c1cccc(C)c1CO/N=C(\C)c1c(F)cccc1OC(F)(F)F [compound 325] | 1 |
| CNC(=O)/C(=N/OC)c1cccc(C)c1CO/N=C(\C)c1cccc(F)c1C(F)(F)F [compound 326] | 1 |
| CNC(=O)/C(=N/OC)c1cccc(C)c1CO/N=C(\C)c1ccc(C)cc1C(F)(F)F [compound 327] | 4 |
| CO/N=C(/C(=O)OC)c1cccc(C)c1CO/N=C(\C)c1ccc(OC)cc1C(F)(F)F [compound 328] | 5 |
| CNC(=O)/C(=N/OC)c1cccc(C)c1CO/N=C(\C)c1ccccc1OC1CC1 [compound 329] | 73 |
| CO/N=C(/C(=O)OC)c1cccc(C)c1CO/N=C(\C)c1cccc(F)c1C(F)(F)F [compound 330] | 17 |
| CO/N=C(/C(=O)OC)c1cccc(C)c1CO/N=C(\C)c1ccc(Oc2ccc(Cl)cc2)cc1C(F)(F)F [compound 335] | 25 |
| CNC(=O)/C(=N/OC)c1cccc(C)c1CO/N=C(\C)c1ccc(Oc2ccc(Cl)cc2)cc1C(F)(F)F [compound 336] | 17 |
| CNC(=O)/C(=N/OC)c1cccc(C)c1CO/N=C(\C)c1ccc(OC)cc1OC(F)(F)F [compound 337] | 1 |
| CNC(=O)/C(=N/OC)c1cccc(C)c1CO/N=C(\C)c1ccc(C)cc1OC(F)(F)F [compound 340] | 7 |
| CNC(=O)/C(=N/OC)c1cccc(C)c1CO/N=C(\C)c1c(F)cc(F)cc1OC(F)(F)F [compound 344] | 0 |

— patent US20230172206A1 (BASF SE, priority 2020, published 2023)
